The source of these data is US20210379085A1, “HALOGENATED SALICYLANILIDES FOR TREATING THE SYMPTOMS OF DERMATITIS” (Union Therapeutics A/S, priority 2018, published 2021).

Each structure is given as a SMILES string.

One series can be described thus: in vivo. The note with it: dog.
Series [1] can be described thus: Plasma pharmacokinetics of oxyclozanide after topical Composition K in dogs (Example 5). The series is classed as in vivo, dog. Here is the method:
The cutaneous route (topical administration) was the route of administration for composition K on dogs. Composition K was applied evenly along the backbone starting from the base of the tail to the back of the neck.
For all animals of group A, a blood sample of around 4 ml was collected from the jugular vein using tubes containing lithium heparin at the following times (with tolerance of 10%): D-3a, D0a+1h, D0a+6h, D0a+12h, D0a+16h, D0a+24h, D0a+32h, D0a+48h, D3a, D5a et D7a.
Centrifugation (around 3500 revolutions/min, for 15 minutes at +4° C.) was performed a maximum of 30 minutes after sampling. The plasma was collected and then divided into two aliquots in tubes (Nunc 1.8 ml type) as follows: • S1 aliquot: around 0.5 ml • S2 aliquot: the remainder of the plasma (more than 0.5 ml)
The pharmacokinetic analysis was performed using Phoenix software (version 6.3, Pharsight, USA). Data points indicated as “missing” were systematically ignored during the calculation and therefore have no effect on the results. A missing status is assigned and no flag symbol is used. Values were excluded if, in the judgement of the pharmacokineticist, they were deemed not to be “[…].” If outliers were suspected, they were identified using the Outlier identification procedure of STATGRAPHICS.

The Vd is a proportionality between amount in the body and measured concentration, not a real space. Read a high Vd as wide distribution into tissue. As usually defined, the half-life is the time in which the quantity being followed falls by half. Read a high half-life as slow decline. For orientation: bioavailability means the share of a dose that reaches the circulation, judged against a reference dose that is usually intravenous. A low value points to poor availability. In “in vivo” (iv, 2.5 mg/kg), `O=C(Nc1cc(Cl)cc(Cl)c1O)c1c(O)c(Cl)cc(Cl)c1Cl` [Oxyclozanide] gave a Vd of roughly 0.6 L/kg and a half-life of 38 h. For the same compound, the bioavailability in “in vivo” (po, 5 mg/kg) was found to be 48%. Also, in the series “in vivo” (topical or ocular, 20 mg/kg), the AUC(0-inf) stood at 55700 ng·h/mL and the bioavailability came to 12%. Further, in series [1] (dog, plasma, topical or ocular, topical single 20 mg/kg Composition K, read-out: AUCinf in plasma (first value of the comparison, presumably Example 5)), the AUC(0-inf) is 60600 ng·h/mL. Also, in series [1] (topical 20 mg/kg Composition K), the “concentrations of oxyclozanide in plasma after topical administration” value is “Low concentrations”. The “bioavailability after topical administration (Example 5, by comparison of AUCinf with Example 4)” value in series [1] (topical 20 mg/kg Composition K, not calculated, no intravenous route in this study) was “about 12%”.
